Assay results: the supplement of paper PMC11451515

Assays:
Settings in all cases: 48 h
P12-Ichikawa [1] = test: cell viability relative to DMSO control; higher = less cytotoxic
Summary of the method: (§1)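 Cells were incubated for 48 h at 37°C before CellTiter-Glo One luminescence was read. The cells were NOMO1 or SEM (500 cells/well) or P12-Ichikawa (1000 cells/well) leukemia cells, adapted for at least four passages in each medium and seeded in 1536-well plates (5 μl). Dosing used library compounds in DMSO applied by pin over 11 threefold points, 47 μM to 0.79 nM. Viability is the per-plate percentage of DMSO wells, with cell-free wells as background.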

SEM cells [2] = test: as above
Summary of the method: as §1

NOMO1 [3] = test: as above
Summary of the method: as §1

P12-Ichikawa [4] = test: AUC of viability dose-response curve (% viability x log10 dose units); higher = less sensitive
Summary of the method: (§2)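 Leukemia cells adapted to each medium (500 or 1000 cells/well, 1536-well plates) were exposed to library compounds in DMSO for 48 h at 37°C at 11 threefold doses, 47 μM to 0.79 nM. Luminescence by CellTiter-Glo One was normalised per plate to DMSO and cell-free wells, then fitted with a four-parameter log-logistic curve on log10 dose. Curves above full viability were scaled and quality-control failures removed before area under the curve was integrated by trapezoidal rule.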

SEM cells [5] = test: as above
Summary of the method: as §2

NOMO1 [6] = test: as above
Summary of the method: as §2

Oc1ccc(/C=C/c2cc(O)cc(O)c2)cc1
cell viability [%]
Settings	NOMO1 [3]	P12-Ichikawa [1]	SEM cells [2]
HPLM + 10% dialyzed FBS, 0.000781 µM	108	111	99.5
HPLM + 10% dialyzed FBS, 0.00234 µM	112	110	113
HPLM + 10% dialyzed FBS, 0.00702 µM	115	110	106
HPLM + 10% dialyzed FBS, 0.0211 µM	111	114	104
HPLM + 10% dialyzed FBS, 0.0632 µM	107	105	115
HPLM + 10% dialyzed FBS, 0.19 µM	114	111	110
HPLM + 10% dialyzed FBS, 0.569 µM	92.4	115	112
HPLM + 10% dialyzed FBS, 1.71 µM	117	103	121
HPLM + 10% dialyzed FBS, 5.12 µM	97.5	105	118
HPLM + 10% dialyzed FBS, 15.4 µM	50.1	108	97.6
HPLM + 10% dialyzed FBS, 46.1 µM	10.4	41.4	10.4
RPMI 5 mM glucose + 10% FBS, 0.000781 µM	109	116	105
RPMI 5 mM glucose + 10% FBS, 0.00234 µM	98.8	118	107
RPMI 5 mM glucose + 10% FBS, 0.00702 µM	111	116	85.6
RPMI 5 mM glucose + 10% FBS, 0.0211 µM	105	118	100
RPMI 5 mM glucose + 10% FBS, 0.0632 µM	98	118	103
RPMI 5 mM glucose + 10% FBS, 0.19 µM	102	112	108
RPMI 5 mM glucose + 10% FBS, 0.569 µM	99.8	117	111
RPMI 5 mM glucose + 10% FBS, 1.71 µM	107	106	94.9
RPMI 5 mM glucose + 10% FBS, 5.12 µM	95.3	111	101
RPMI 5 mM glucose + 10% FBS, 15.4 µM	103	101	22.7
RPMI 5 mM glucose + 10% FBS, 46.1 µM	15.1	58.6	5.07
RPMI 5 mM glucose + 10% dialyzed FBS, 0.000781 µM	89.7	108	114
RPMI 5 mM glucose + 10% dialyzed FBS, 0.00234 µM	106	111	115
RPMI 5 mM glucose + 10% dialyzed FBS, 0.00702 µM	98.1	111	97.2
RPMI 5 mM glucose + 10% dialyzed FBS, 0.0211 µM	104	112	98.4
RPMI 5 mM glucose + 10% dialyzed FBS, 0.0632 µM	103	113	100
RPMI 5 mM glucose + 10% dialyzed FBS, 0.19 µM	105	116	92.8
RPMI 5 mM glucose + 10% dialyzed FBS, 0.569 µM	99.2	121	103
RPMI 5 mM glucose + 10% dialyzed FBS, 1.71 µM	97.4	108	103
RPMI 5 mM glucose + 10% dialyzed FBS, 5.12 µM	102	103	111
RPMI 5 mM glucose + 10% dialyzed FBS, 15.4 µM	83.4	84.5	73.7
RPMI 5 mM glucose + 10% dialyzed FBS, 46.1 µM	18.4	36.9	7.98

AUC of viability dose-response curve
Settings	NOMO1 [6]	P12-Ichikawa [4]	SEM cells [5]
HPLM + 10% dialyzed FBS	425	462	450
RPMI 5 mM glucose + 10% FBS	457	457	417
RPMI 5 mM glucose + 10% dialyzed FBS	450	444	441

Clc1cc(Cl)cc(CNc2ncncc2-c2ccc3c(c2)OCO3)c1
cell viability [%]
Settings	NOMO1 [3]	P12-Ichikawa [1]	SEM cells [2]
HPLM + 10% dialyzed FBS, 0.000781 µM	81.1	93.7	93.3
HPLM + 10% dialyzed FBS, 0.00234 µM	85.8	93.6	101
HPLM + 10% dialyzed FBS, 0.00702 µM	97.1	92.6	95.7
HPLM + 10% dialyzed FBS, 0.0211 µM	94.1	97.4	97.4
HPLM + 10% dialyzed FBS, 0.0632 µM	101	100	89
HPLM + 10% dialyzed FBS, 0.19 µM	92.4	90.3	104
HPLM + 10% dialyzed FBS, 0.569 µM	94.6	93.8	92.2
HPLM + 10% dialyzed FBS, 1.71 µM	90.8	97.5	105
HPLM + 10% dialyzed FBS, 5.12 µM	85.7	92.6	90.4
HPLM + 10% dialyzed FBS, 15.4 µM	82.7	94	89.1
HPLM + 10% dialyzed FBS, 46.1 µM	16.1	10.4	29.7
RPMI 5 mM glucose + 10% FBS, 0.000781 µM	77.6	97.6	100
RPMI 5 mM glucose + 10% FBS, 0.00234 µM	85.5	92.7	97.4
RPMI 5 mM glucose + 10% FBS, 0.00702 µM	87.6	91.3	98.4
RPMI 5 mM glucose + 10% FBS, 0.0211 µM	80.7	93.8	94.5
RPMI 5 mM glucose + 10% FBS, 0.0632 µM	101	96.3	92.7
RPMI 5 mM glucose + 10% FBS, 0.19 µM	96.6	93.1	110
RPMI 5 mM glucose + 10% FBS, 0.569 µM	87.3	86.6	103
RPMI 5 mM glucose + 10% FBS, 1.71 µM	97.9	94.2	86.6
RPMI 5 mM glucose + 10% FBS, 5.12 µM	85.4	89.9	92.3
RPMI 5 mM glucose + 10% FBS, 15.4 µM	87.7	86	86.6
RPMI 5 mM glucose + 10% FBS, 46.1 µM	40.3	47.2	5.5
RPMI 5 mM glucose + 10% dialyzed FBS, 0.000781 µM	91.5	87.6	90.5
RPMI 5 mM glucose + 10% dialyzed FBS, 0.00234 µM	92.1	96.6	95.3
RPMI 5 mM glucose + 10% dialyzed FBS, 0.00702 µM	81.4	102	102
RPMI 5 mM glucose + 10% dialyzed FBS, 0.0211 µM	93.7	96.1	99.7
RPMI 5 mM glucose + 10% dialyzed FBS, 0.0632 µM	82	95.1	90.5
RPMI 5 mM glucose + 10% dialyzed FBS, 0.19 µM	93.5	91.7	96.8
RPMI 5 mM glucose + 10% dialyzed FBS, 0.569 µM	84.2	92.7	80.4
RPMI 5 mM glucose + 10% dialyzed FBS, 1.71 µM	87.3	102	100
RPMI 5 mM glucose + 10% dialyzed FBS, 5.12 µM	88.8	97.9	105
RPMI 5 mM glucose + 10% dialyzed FBS, 15.4 µM	101	99	86.2
RPMI 5 mM glucose + 10% dialyzed FBS, 46.1 µM	52.9	61.1	28.3

AUC of viability dose-response curve
Settings	NOMO1 [6]	P12-Ichikawa [4]	SEM cells [5]
HPLM + 10% dialyzed FBS	414	431	441
RPMI 5 mM glucose + 10% FBS	412	429	437
RPMI 5 mM glucose + 10% dialyzed FBS	418	450	435

CC(=O)N1CCN(c2ccc(OC[C@H]3CO[C@](Cn4ccnc4)(c4ccc(Cl)cc4Cl)O3)cc2)CC1
cell viability [%]
Settings	NOMO1 [3]	P12-Ichikawa [1]	SEM cells [2]
HPLM + 10% dialyzed FBS, 0.000781 µM	126	118	98.3
HPLM + 10% dialyzed FBS, 0.00234 µM	120	120	97.8
HPLM + 10% dialyzed FBS, 0.00702 µM	123	118	104
HPLM + 10% dialyzed FBS, 0.0211 µM	118	112	95.2
HPLM + 10% dialyzed FBS, 0.0632 µM	117	108	107
HPLM + 10% dialyzed FBS, 0.19 µM	102	121	26.4
HPLM + 10% dialyzed FBS, 0.569 µM	129	114	90.9
HPLM + 10% dialyzed FBS, 1.71 µM	103	105	92.8
HPLM + 10% dialyzed FBS, 5.12 µM	98.8	104	21.5
HPLM + 10% dialyzed FBS, 15.4 µM	96.3	94	87.1
HPLM + 10% dialyzed FBS, 46.1 µM	80.4	63.2	86.4
RPMI 5 mM glucose + 10% FBS, 0.000781 µM	113	–	124
RPMI 5 mM glucose + 10% FBS, 0.00234 µM	111	–	136
RPMI 5 mM glucose + 10% FBS, 0.00702 µM	121	–	121
RPMI 5 mM glucose + 10% FBS, 0.0211 µM	114	–	125
RPMI 5 mM glucose + 10% FBS, 0.0632 µM	114	–	134
RPMI 5 mM glucose + 10% FBS, 0.19 µM	107	–	28
RPMI 5 mM glucose + 10% FBS, 0.569 µM	119	–	113
RPMI 5 mM glucose + 10% FBS, 1.71 µM	106	–	104
RPMI 5 mM glucose + 10% FBS, 5.12 µM	97.9	–	14.1
RPMI 5 mM glucose + 10% FBS, 15.4 µM	98.2	–	90.5
RPMI 5 mM glucose + 10% FBS, 46.1 µM	93.6	–	48.5
RPMI 5 mM glucose + 10% dialyzed FBS, 0.000781 µM	111	109	–
RPMI 5 mM glucose + 10% dialyzed FBS, 0.00234 µM	100	107	–
RPMI 5 mM glucose + 10% dialyzed FBS, 0.00702 µM	120	110	–
RPMI 5 mM glucose + 10% dialyzed FBS, 0.0211 µM	127	107	–
RPMI 5 mM glucose + 10% dialyzed FBS, 0.0632 µM	127	113	–
RPMI 5 mM glucose + 10% dialyzed FBS, 0.19 µM	113	106	–
RPMI 5 mM glucose + 10% dialyzed FBS, 0.569 µM	103	101	–
RPMI 5 mM glucose + 10% dialyzed FBS, 1.71 µM	113	101	–
RPMI 5 mM glucose + 10% dialyzed FBS, 5.12 µM	126	94	–
RPMI 5 mM glucose + 10% dialyzed FBS, 15.4 µM	110	96.7	–
RPMI 5 mM glucose + 10% dialyzed FBS, 46.1 µM	89.3	68.2	–

AUC of viability dose-response curve
Settings	NOMO1 [6]	P12-Ichikawa [4]	SEM cells [5]
HPLM + 10% dialyzed FBS	437	449	391
RPMI 5 mM glucose + 10% FBS	456	456	340
RPMI 5 mM glucose + 10% dialyzed FBS	470	452	336
